System: healthy donor PBMC (CD8+ T cells)
Assay type: cell-based, human
Details: of one 48 well plate; two rounds of stimulation with peptide-pulsed autologous DCs; HLA-matched healthy donor

Sequence	wells showing clear peptide tetramer positive CD8+ T cell population [wells]
TLVPQEHYV [NSP13-242]	48
KLFAAETLK [NSP13-134]	11
VYIGDPAQL (listed as Homo Sapiens) [NSP13-400, NSP13 derived HLA-A2402 peptide]	9

Reference: patent publication US20240293459A1 (priority 2021, published 2024)
